The test system of test [1] is CD20 antigen-negative human T-lymphoblastic leukemia-derived MOLT-4 cells. In words: Cytotoxic test (CellTiter-Glo), CD20 antigen-negative cells. It counts as cell-based. The settings on record: cultured 4 days, read-out: IC50(nmol/L) MOLT-4 (CD20 negative). As for the experimental part: (§1) CD20 antigen-positive human B-cell lymphoma-derived Raji cells or CD20 antigen-negative human T-lymphoblastic leukemia-derived MOLT-4 cells were adjusted to a cell concentration of 5.0×10^4 cells/mL with the RPMI1640 medium, and 50 μL each was added to the 96-well microplate for cell culture, then cultured overnight. On the next day, 50 μL of the evaluation specimen diluted with the RPMI medium was separately added to the microplate, and the cells were cultured for 4 days at 37° C. under 5% CO2. After the culturing, CellTiter-Glo™ Luminescent Cell Viability Assay (Promega Corporation) was added to the microplate, and the mixture was stirred and left to stand at room temperature for 10 minutes. The light emission amount was then measured with a plate reader (Molecular Devices, LLC.). The cell viability and IC50 value were calculated.
(In general: Cellular ATP, detected with luciferase, serves as a proxy for viable cell number.)

Test [2] relates to CD20 antigen-positive human B-cell lymphoma-derived Raji cells. In words: Cytotoxic test (CellTiter-Glo), CD20 antigen-positive cells. The settings on record: high expression of CD20, cultured 4 days, read-out: IC50(nmol/L) Raji (High expression of CD20). Type of test: cell-based. As for the experimental part: as §1
The subject of test [3] is mouse colon cancer cell line C26. The experiment in a line: Drug efficacy test in C26 tumor-bearing nude mice. It counts as in vivo. The settings on record: after 14 days from administration; tail vein, 3 times every other day; 8 mg/kg (3.9 mg/kg in terms of Pt). As for the experimental part:
A tumor-bearing model obtained by subcutaneously transplanting a mouse colon cancer cell line C26 (American Type Culture Collection) into a female nude mouse (BALB/c-nu/nu, 7 weeks old; Charles River Laboratories Japan, Inc.) was used for a drug efficacy test.
A mouse colon cancer cell line C26 subcultured in a CO2 incubator was suspended in a liquid medium (Dulbecco's Modified Eagle's Medium-high glucose, Sigma-Aldrich Co. LLC), and injected subcutaneously in the back of nude mice so that the number of cells per mouse was 1×10^6/100 μL. Thereafter, the nude mice were raised for about 1 week, and administration of a drug was started when the average value of the tumor volume had grown to about 30 mm^3. A DACHPt-encapsulating SCNP (DACHPt-encapsulating SCNP prepared using the copolymer of Example 70) was administered into the tail vein (3 times every other day), and the antitumor effect was evaluated based on the tumor volume (4 to 5 mice per 1 group). As a comparison, an oxaliplatin solution (Comparative Example 1) was used, and it was administered in the same manner. The dose of each preparation was 8 mg/kg (3.9 mg/kg in terms of Pt) as the maximum administrable dose for the oxaliplatin solution, and 3 mg/kg in terms of Pt for the DACHPt-encapsulating SCNP. […]

We go through two compounds from US20260034236A1, “NEW DRUG COMPLEX” (KOWA COMPANY, LTD., priority 2022, published 2026).

pIC50: −log10 of the molar value.

Regarding rituximab [Comparative Example 4], the pIC50 in test [1] and in test [2] was under 7.16 each time.

In the case of `O=C1[O][Pt]2([NH][C@@H]3CCCC[C@H]3[NH]2)[O]C1=O` [Comparative Example 1, oxaliplatin], in test [3], the “T/C (ratio of the tumor volume of the drug administration group to that of the control group)” value was 1.1.
